Experimental data from the supplement of paper PMC10307832.

How the values were obtained:
Assay in all cases: relative viability (nuclei count vs DMSO), 5 days (fraction); higher = more cells survive
[1] = test system: SW 900
Procedure, shortened: (§1)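 Values are medians from duplicate plates. Each reflects relative viability, defined as the nuclei count of treated wells over that of vehicle wells. Lung cancer cell lines in 1536-well plates were pin-tool dosed one day after seeding with one drug alone or with a fixed anchor-drug dose plus five library-drug doses (not always all listed) in √10 steps, then fixed, stained and imaged at 4× after 5 days.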

[2] = test system: NCI-H2342
Procedure, shortened: as §1

[3] = test system: NCI-H1563
Procedure, shortened: as §1

[4] = test system: NCI-H522
Procedure, shortened: as §1

[5] = test system: NCI-H1623
Procedure, shortened: as §1

[6] = test system: A549
Procedure, shortened: as §1

[7] = test system: EBC-1
Procedure, shortened: as §1

[8] = test system: NCI-H1703
Procedure, shortened: as §1

[9] = test system: Calu-6
Procedure, shortened: as §1

[10] = test system: IA-LM
Procedure, shortened: as §1

[11] = test system: NCI-H1299
Procedure, shortened: as §1

[12] = test system: NCI-H1648
Procedure, shortened: as §1

In the case of `O=C(O)CCCCC(CCSCc1ccccc1)SCc1ccccc1` (configuration not stated) [CPI-613] + N=C(N)NC(=N)NCCc1ccccc1 [Phenformin] (partner 250 µM), the relative viability ([1]; first compound 5 µM) is reported as 0.579, the relative viability ([1]; first compound 15.81 µM) is reported as 0.542 and the relative viability ([1]; first compound 50 µM) is reported as 0.4. It also gave a relative viability ([1]; first compound 158.11 µM) of 0.305, a relative viability ([1]; first compound 500 µM) of 0.03 and a relative viability ([2]; first compound 5 µM) of 0.636. The relative viability ([2]; first compound 15.81 µM) was 0.589, the relative viability ([2]; first compound 50 µM) was 0.586 and the relative viability ([2]; first compound 158.11 µM) was 0.487. The relative viability ([2]; first compound 500 µM) was 0.638, the relative viability ([3]; first compound 5 µM) was 0.638 and the relative viability ([3]; first compound 15.81 µM) was 0.588. For the same compound, the relative viability ([3]; first compound 50 µM) was 0.637, the relative viability ([3]; first compound 158.11 µM) was 0.503 and the relative viability ([3]; first compound 500 µM) was 0.27. For the same compound, the relative viability ([4]; first compound 5 µM) was 0.681, the relative viability ([4]; first compound 15.81 µM) was 0.672 and the relative viability ([4]; first compound 50 µM) was 0.625. It also gave a relative viability ([4]; first compound 158.11 µM) of 0.588, a relative viability ([4]; first compound 500 µM) of 0.399 and a relative viability ([5]; first compound 5 µM) of 0.63. It also gave a relative viability ([5]; first compound 15.81 µM) of 0.565, a relative viability ([5]; first compound 50 µM) of 0.573 and a relative viability ([5]; first compound 158.11 µM) of 0.488. For the same compound, the relative viability ([5]; first compound 500 µM) was 0.551, the relative viability ([6]; first compound 5 µM) was 0.162 and the relative viability ([6]; first compound 15.81 µM) was 0.172. It also gave a relative viability ([6]; first compound 50 µM) of 0.178, a relative viability ([6]; first compound 158.11 µM) of 0.131 and a relative viability ([6]; first compound 500 µM) of 0.107.
`O=C(O)CCCCC(CCSCc1ccccc1)SCc1ccccc1` (configuration not stated) [CPI-613] + O=C(c1cc(Cc2n[nH]c(=O)c3ccccc23)ccc1F)N1CCN(C(=O)C2CC2)CC1 [Olaparib] (partner 8 µM) showed a relative viability ([7]; first compound 5 µM) of 0.698, a relative viability ([7]; first compound 15.81 µM) of 0.33 and a relative viability ([7]; first compound 50 µM) of 0.589. The relative viability ([7]; first compound 158.11 µM) was 0.512, the relative viability ([7]; first compound 500 µM) was 0.49 and the relative viability ([1]; first compound 5 µM) was 0.873. It also gave a relative viability ([1]; first compound 50 µM) of 0.823, a relative viability ([1]; first compound 158.11 µM) of 0.33 and a relative viability ([1]; first compound 500 µM) of 0.0124. It also gave a relative viability ([2]; first compound 5 µM) of 0.472, a relative viability ([2]; first compound 15.81 µM) of 0.432 and a relative viability ([2]; first compound 50 µM) of 0.5. For the same compound, the relative viability ([2]; first compound 158.11 µM) was 0.461, the relative viability ([2]; first compound 500 µM) was 0.412 and the relative viability ([8]; first compound 5 µM) was 0.411. It also gave a relative viability ([8]; first compound 15.81 µM) of 0.453, a relative viability ([8]; first compound 50 µM) of 0.499 and a relative viability ([8]; first compound 158.11 µM) of 0.36. For the same compound, the relative viability ([8]; first compound 500 µM) was 0.403, the relative viability ([9]; first compound 5 µM) was 0.525 and the relative viability ([9]; first compound 50 µM) was 0.521. For the same compound, the relative viability ([9]; first compound 158.11 µM) was 0.433, the relative viability ([9]; first compound 500 µM) was 0.401 and the relative viability ([10]; first compound 5 µM) was 0.881. For the same compound, the relative viability ([10]; first compound 15.81 µM) was 0.751, the relative viability ([10]; first compound 50 µM) was 0.866 and the relative viability ([10]; first compound 158.11 µM) was 0.537. It also gave a relative viability ([10]; first compound 500 µM) of 0.656, a relative viability ([11]; first compound 5 µM) of 0.942 and a relative viability ([11]; first compound 15.81 µM) of 1.01. It also gave a relative viability ([11]; first compound 50 µM) of 0.903, a relative viability ([11]; first compound 158.11 µM) of 0.909 and a relative viability ([11]; first compound 500 µM) of 0.968. It also gave a relative viability ([4]; first compound 5 µM) of 0.589, a relative viability ([4]; first compound 15.81 µM) of 0.533 and a relative viability ([4]; first compound 50 µM) of 0.681. For the same compound, the relative viability ([4]; first compound 158.11 µM) was 0.453, the relative viability ([4]; first compound 500 µM) was 0.346 and the relative viability ([12]; first compound 5 µM) was 0.878. For the same compound, the relative viability ([12]; first compound 15.81 µM) was 0.976, the relative viability ([12]; first compound 50 µM) was 1.01 and the relative viability ([12]; first compound 158.11 µM) was 0.255. It also gave a relative viability ([12]; first compound 500 µM) of 0.0437, a relative viability ([6]; first compound 5 µM) of 0.301 and a relative viability ([6]; first compound 15.81 µM) of 0.371. The relative viability ([6]; first compound 50 µM) was 0.301, the relative viability ([6]; first compound 158.11 µM) was 0.335 and the relative viability ([6]; first compound 500 µM) was 0.327.
With `O=c1[nH]c2ccccc2n1C1CCN(CCCC(c2ccc(F)cc2)c2ccc(F)cc2)CC1` [Pimozide] + CCNC(=O)c1noc(-c2cc(C(C)C)c(O)cc2O)c1-c1ccc(CN2CCOCC2)cc1 [Luminespib] (partner 0.01 µM) the relative viability ([1]; first compound 0.08 µM) was 0.163, the relative viability ([1]; first compound 0.253 µM) was 0.157 and the relative viability ([1]; first compound 0.8 µM) was 0.18. For the same compound, the relative viability ([1]; first compound 2.53 µM) was 0.192, the relative viability ([1]; first compound 8 µM) was 0.181 and the relative viability ([2]; first compound 0.08 µM) was 0.616. The relative viability ([2]; first compound 0.253 µM) was 0.685, the relative viability ([2]; first compound 0.8 µM) was 0.611 and the relative viability ([2]; first compound 2.53 µM) was 0.739. For the same compound, the relative viability ([2]; first compound 8 µM) was 0.696, the relative viability ([3]; first compound 0.08 µM) was 0.511 and the relative viability ([3]; first compound 0.253 µM) was 0.513. It also gave a relative viability ([3]; first compound 0.8 µM) of 0.516, a relative viability ([3]; first compound 2.53 µM) of 0.549 and a relative viability ([3]; first compound 8 µM) of 0.496. It also gave a relative viability ([4]; first compound 0.08 µM) of 1.01, a relative viability ([4]; first compound 0.253 µM) of 1.08 and a relative viability ([4]; first compound 0.8 µM) of 1.21. The relative viability ([4]; first compound 2.53 µM) was 1.21, the relative viability ([4]; first compound 8 µM) was 1.24 and the relative viability ([5]; first compound 0.253 µM) was 0.515. The relative viability ([5]; first compound 0.8 µM) was 0.487, the relative viability ([5]; first compound 2.53 µM) was 0.521 and the relative viability ([5]; first compound 8 µM) was 0.447.
